We go through five molecules from patent US20240383915A1, “OXAZEPINE COMPOUNDS AND USES THEREOF IN THE TREATMENT OF CANCER” (Genentech, Inc., priority 2021, published 2024).

The test system of assay [1] is KRAS G12D human pancreatic cell lines (AsPC-1 and SW1990). Put plainly: KRAS 3D-cell proliferation assay, CTG panel (G12D). Particulars: 168 h, CellTiter-Glo 3D, 7 days. The assay is classed as cell-based. How it is done: (§1) KRAS 3D-Cell Proliferation Assays. Cellular potencies of compounds were assessed by evaluating inhibition of proliferation in 3D cultures of homozygous mutant KRAS G12D human pancreatic cell lines (AsPC-1 and SW1990) as compared to a KRAS wild type human lung adenocarcinoma cell line (PC-9). Cells were seeded into 384-well black round-bottom, ultra-low attachment assay plates in 50 μL cell growth medium (RPMI-1640 with 10% fetal bovine serum and 2 mM L-glutamine). After overnight incubation at 37° C. and 5% CO2, compounds solubilized in DMSO were added as dilution series to the wells in a total volume of 150 nL (0.3% DMSO final). The cells were incubated for 7 days at 37° C. and 5% CO2. Cell proliferation was quantitated by addition of 40 μL/well of CellTiter-Glo® 3D (Promega). This reagent in combination with mechanical disruption releases the cellular ATP to promote activity in a luciferase-based enzyme/substrate chemiluminescent detection system. After a 25-minute incubation under ambient conditions with shaking and an additional 10 minutes without shaking, the contents of the wells were mixed by pipetting up and down repeatedly to disrupt the spheroids, and then the plates were centrifuged to remove bubbles. The plates were incubated for another 15 minutes under ambient conditions, and the luminescence read on a plate reader (e.g. EnVision [PerkinElmer]). […] The normalized luminescence results were plotted against compound concentration, and the data fit to a 4-parameter Hill equation to determine the IC50 values.
A general note: In ATP-based viability assays light output follows the ATP content of the culture.

Assay [2] deals with KRAS wild type human lung adenocarcinoma cell line (PC-9). Put plainly: KRAS 3D-cell proliferation assay, CTG panel non G12D. The class given is cell-based. Particulars: 168 h, CellTiter-Glo 3D, 7 days. How it is done: as §1
Assay [3] addresses Raf-RBD/KRAS G12D interaction (Homo sapiens (Human), UniProt P01116, G12D). The assay can be described thus: KRAS G12D NanoBRET assay. The assay is classed as cell-based. Particulars: HCT116. How it is done: KRAS G12D NanoBRET Assay. Cellular target engagement was assessed by monitoring inhibition of the Raf-RBD/KRAS G12D interaction in a NanoBRET™ assay (Promega). […] Cells were seeded into 384-well white tissue culture-treated assay plates in 40 μL culture medium (RPMI-1640 with 10% fetal bovine serum, 2 mM glutamine, […] puromycin, and 4 ng/mL blasticidin) with doxycycline to induce KRAS G12D-nanoluciferase expression over 20-24 h at 37° C., 5% CO2. The culture medium was then removed and replaced with assay medium (Opti-MEM® with 4% fetal bovine serum) and 0.1 μM HaloTag618 ligand. During the subsequent 4 h incubation at 37° C., 5% CO2, the HaloTag618 ligand binds to the Halotag-labeled KRAS G12D. Compounds solubilized in DMSO were then added as dilution series to the wells in a total volume of 160 nL (0.4% DMSO final), and the plates were incubated overnight at 37° C., 5% CO2. In the final step, 10 μL NanoGlo substrate in Opti-MEM was added to each well, and the emission read at 460 nm (luciferase signal) and 610 nm (NanoBRET signal) on an EnVision plate reader (PerkinElmer). The Raf-RBD/KRAS G12D interaction results in bioluminescence resonance energy transfer (BRET) from the product of the luciferase reaction in the vicinity of the Raf-RBD to the HaloTag ligand acceptor on the KRAS G12D and generates the NanoBRET signal. Binding of compounds to KRAS G12D and disruption of its interaction with Raf-RBD results in reduction of this signal. The luciferase signal and NanoBRET signal for compound wells were divided by the average corresponding signal for DMSO control wells. Then the NanoBRET ratio was calculated by dividing the control-adjusted NanoBRET signal by the similarly adjusted luciferase signal. […] The normalized NanoBRET ratio results were plotted against compound concentration, and the data fit to a 4-parameter Hill equation to determine the IC50 values.
On the technique in general: Bioluminescence resonance energy transfer reports proximity on the nanometre scale.

For a further assay, the target named is KRAS G12D (Homo sapiens (Human), UniProt P01116, G12D). Put plainly: KRas (G12D) GDP HTRF (BODIPY-GDP exchange TR-FRET). The class given is biochemical. How it is done: (§2) KRAS Biochemical Assay—BODIPY-GDP Exchange TR-FRET. Biochemical compound potencies were assessed by evaluating inhibition of SOS1-mediated nucleotide exchange in KRAS G12D. The SOS1-promoted exchange of fluorescently-labeled GDP (BODIPY-GDP) was monitored by time-resolved fluorescence resonance energy transfer (TR-FRET). Compounds solubilized in DMSO were dispensed as concentration series into 384-well white assay plates. A preformed complex of biotin-tagged recombinant human KRAS (1.5 nM mutant G12D or wild type) and 0.15 nM terbium-labeled streptavidin (CisBIO) prepared in 10 μL/well assay buffer (20 mM HEPES, pH 7.5, 50 mM NaCl, 10 mM MgCl2, 0.01% Tween-20 and 1 mM dithiothreitol) was added and allowed to incubate for 10-minutes. The reaction was initiated with the addition of 5 μL of 3 nM recombinant human SOS1 and 300 nM BODIPY-GDP in assay buffer. After a 60-minute incubation, the fluorescence was measured with excitation at 337 nm and emission at 490 and 520 nm. The TR-FRET ratio was determined as the fluorescence at 520 nm divided by the fluorescence at 490 nm multiplied by 10,000. […] The normalized TR-FRET results were plotted against compound concentration, and the data fit to a 4-parameter Hill equation to determine the IC50 values.
In general terms: TR-FRET usually uses a lanthanide donor and a delayed reading to cut background.

A further assay addresses KRAS wild type (Homo sapiens (Human), UniProt P01116). The assay can be described thus: KRas (wt) GDP HTRF (BODIPY-GDP exchange TR-FRET). The assay is classed as biochemical. How it is done:
as §2

Some results are limits rather than exact numbers.

KRAS wild type, sequence (P01116-2 other isoform, or with tags, fused parts or gaps): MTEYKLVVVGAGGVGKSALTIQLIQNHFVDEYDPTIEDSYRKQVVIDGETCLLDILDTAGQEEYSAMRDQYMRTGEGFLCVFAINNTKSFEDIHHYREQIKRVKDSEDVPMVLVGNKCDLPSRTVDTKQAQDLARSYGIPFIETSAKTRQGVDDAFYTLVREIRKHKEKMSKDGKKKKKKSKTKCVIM
Raf-RBD/KRAS G12D interaction, sequence (P01116-2 other isoform, or with tags, fused parts or gaps G12D): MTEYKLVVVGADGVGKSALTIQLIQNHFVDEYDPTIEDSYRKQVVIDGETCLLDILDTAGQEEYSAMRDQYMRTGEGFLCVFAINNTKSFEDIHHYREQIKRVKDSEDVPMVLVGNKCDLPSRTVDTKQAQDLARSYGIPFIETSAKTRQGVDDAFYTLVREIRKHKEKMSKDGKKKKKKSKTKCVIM
KRAS G12D, sequence (P01116-2 other isoform, or with tags, fused parts or gaps G12D): as above

Broadly, the IC50 is the concentration that gives 50% inhibition. As for `C=C1CN2CCC[C@@]2(COc2nc3c4c(c(Cl)c(-c5nc(N)cc(C)c5C(F)(F)F)c(F)c4n2)OCCN3CCN(C)C)C1` (single isomer, unassigned) [Example 513], the concentration for half-maximal inhibition (IC50) in assay [1] came to 1080 nM; in assay [2] it was 2290 nM; in assay [3], 2580 nM; on KRAS G12D, 1.55 nM; against KRAS wild type it was 10.8 nM.
On to `C=C1CN2CCC[C@@]2(COc2nc3c4c(c(F)c(-c5nc(N)cc(C)c5C(F)(F)F)c(F)c4n2)OCCN3CCN(C)C)C1` (single isomer, unassigned) [Example 523], for which the IC50 is 7700 nM in assay [2], ≥ 10000 nM in assay [3], 11.9 nM on KRAS G12D and 88 nM against KRAS wild type.
Take `Cc1cc(N)nc(-c2cc3ncnc4c3c(c2Cl)OCCN4CCN(C)CCO)c1C(F)(F)F` [Example 502, 2-((2-(9-(6-Amino-4-methyl-3-(trifluoromethyl)pyridin-2-yl)-8-chloro-5,6-dihydro-4H-[1,4]oxazepino[5,6,7-de]quinazolin-4-yl)ethyl)(methyl)amino)ethan-1-ol]: the concentration for half-maximal inhibition (IC50) in assay [1] was 9650 nM; in assay [2] it was 7880 nM; in assay [3], ≥ 10000 nM; at KRAS G12D, 2770 nM; against KRAS wild type it was 71400 nM.
On to `Cc1cc(N)nc(-c2cc3ncnc4c3c(c2Cl)OCCN4CCN2CCOCC2)c1C(F)(F)F` [Example 504], for which the IC50 in assay [1] was 14900 nM; in assay [2] it was 18500 nM; in assay [3], ≥ 10000 nM; at KRAS G12D, 3460 nM; at KRAS wild type it was 15100 nM.
The like results for `C=C1CN2CCC[C@@]2(COc2nc3c4c(c(Cl)c(-c5nc(N)cc(C)c5C(F)(F)F)cc4n2)OCCN3CCN(C)C)C1` [Example 511] were, in that order, 2240 nM, 2960 nM, 8050 nM, 6.07 nM and 48.4 nM.
